These compounds were tested against T1, Human BCL-XL protein (N-terminal HiBiT tagged BCL-XL in HT1080 cells) (Homo sapiens, UniProt Q07817) (assay: HiBiT based degradation assay). Settings: HT1080 cells expressing N-terminal HiBiT tagged BCL-XL, 6 h, normalized with DMSO control.
T1 construct: expressed in transfected cells; host or cells: HT-1080 (ATCC CCL-121), stably transduced with lentivirus pLV-UBC-N-HiBiT-BCL-XL-PGK-puro and selected with puromycin
T1 sequence (Q07817 whole entry): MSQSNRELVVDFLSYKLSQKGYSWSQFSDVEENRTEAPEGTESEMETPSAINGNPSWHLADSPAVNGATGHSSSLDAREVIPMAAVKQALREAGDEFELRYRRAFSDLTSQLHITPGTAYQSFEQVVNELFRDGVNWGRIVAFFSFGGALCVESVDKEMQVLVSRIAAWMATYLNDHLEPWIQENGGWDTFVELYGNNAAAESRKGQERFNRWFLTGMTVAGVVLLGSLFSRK
Assay type: cell-based
Text: HiBiT Based Degradation Assay
Human BCL-XL protein coding open reading frame fused with N-terminal HiBiT coding sequence was synthesized from Integrated DNA Technologies (IDT). Next, N-HiBiT-BCL-XL sequence was cloned into pLV-UBC-PGK-Puro, a lentivirus plasmid purchased from Vectorbuilder, to generate pLV-UBC-N-HiBiT-BCL-XL-PGK-puro. Lentiviral particles were generated from Lenti-X™ 293T cells (Clontech) by co-transfection of pLV-UBC-N-HiBiT-BCL-XL-PGK-puro plasmids and lentiviral packaging plasmid mix (Cellecta). HT-1080 [HT1080](ATCC CCL-121) cells were infected with the lentivirus, and HT1080 cells stably integrated with the lentiviral vectors were established by incubation with 1 μg/mL puromycin (Thermofisher).
HT1080 cells expressing N-terminal HiBiT tagged BCL-XL were dispensed into a 384-well plate pre-spotted with compounds at varying concentrations. Three thousand cells were seeded into each well in 40 μL of RPMI 1640 media. […] After incubation, luminescence was read on a PHERAstar FSX Plate Reader (BMG). BCL-XL degradation at each indicated concentration was normalized with the DMSO control. The BCL-XL degradation curves were plotted using a four-parameter logistic model. For compounds displaying hook effects, the curve fitting was performed using the bottom point of the hook curves (i.e., the point of Ymin) as the bottom plateau to calculate EC50.
`Cc1ncsc1-c1ccc([C@H](C)NC(=O)[C@@H]2C[C@@H](O)CN2C(=O)[C@@H](NC(=O)CCCCCCCOc2cccc(-c3ccc(N4CCc5cccc(C(=O)Nc6nc7ccccc7s6)c5C4)nc3C(=O)O)c2C)C(C)(C)C)cc1` [Compound 107a, 6-[8-(1,3-benzothiazol-2-ylcarbamoyl)-3,4-dihydro-1H-isoquinolin-2-yl]-3-[3-[8-[[(1S)-1-[(2S,4R)-4-hydroxy-2-[[(1S)-1-[4-(4-methylthiazol-5-yl)phenyl]ethyl]carbamoyl]pyrrolidine-1-carbonyl]-2,2-dimethyl-propyl]amino]-8-oxo-octoxy]-2-methyl-phenyl]pyridine-2-carboxylic acid] was tested, and the “Ymin (6 h)” value was “B (50% ≤ Ymin < 70%)”.
In the case of `Cc1ncsc1-c1ccc([C@H](C)NC(=O)[C@@H]2C[C@@H](O)CN2C(=O)[C@@H](NC(=O)CCc2ccc(Oc3cccc(-c4ccc(N5CCc6cccc(C(=O)Nc7nc8ccccc8s7)c6C5)nc4C(=O)O)c3C)cc2)C(C)(C)C)cc1` [Compound 112a, 6-[8-(1,3-benzothiazol-2-ylcarbamoyl)-3,4-dihydro-1H-isoquinolin-2-yl]-3-[3-[4-[3-[[(1S)-1-[(2S, 4R)-4-hydroxy-2-[[(1S)-1-[4-(4-methylthiazol-5-yl)phenyl]ethyl]carbamoyl]pyrrolidine-1-carbonyl]-2,2-dimethyl-propyl]amino]-3-oxo-propyl]phenoxy]-2-methyl-phenyl]pyridine-2-carboxylic acid], the “Ymin (6 h)” value is reported as “B (50% ≤ Ymin < 70%)”.
In the case of `Cc1ncsc1-c1ccc([C@H](C)NC(=O)[C@@H]2C[C@@H](O)CN2C(=O)[C@@H](NC(=O)CCCCCCCCCn2nc(C)c(-c3ccc(N4CCc5cccc(C(=O)Nc6nc7ccccc7s6)c5C4)nc3C(=O)O)c2C)C(C)(C)C)cc1` [Compound 111a, 6-[8-(1,3-benzothiazol-2-ylcarbamoyl)-3,4-dihydro-1H-isoquinolin-2-yl]-3-[1-[10-[[(1S)-1-[(2S,4R)-4-hydroxy-2-[[(1S)-1-[4-(4-methylthiazol-5-yl)phenyl]ethyl]carbamoyl]pyrrolidine-1-carbonyl]-2,2-dimethyl-propyl]amino]-10-oxo-decyl]-3,5-dimethyl-pyrazol-4-yl]pyridine-2-carboxylic acid], the “Ymin (6 h)” value is reported as “B (50% ≤ Ymin < 70%)”.

Same assay, conditions: HT1080 cells expressing N-terminal HiBiT tagged BCL-XL, 24 h, normalized with DMSO control
For `Cc1ncsc1-c1ccc([C@H](C)NC(=O)[C@@H]2C[C@@H](O)CN2C(=O)[C@@H](n2cc(CCc3ccc(Oc4cccc(-c5ccc(N6CCc7cccc(C(=O)Nc8nc9ccccc9s8)c7C6)nc5C(=O)O)c4C)cc3)nn2)C(C)(C)C)cc1` [Compound 132a, 6-(8-(benzo[d]thiazol-2-ylcarbamoyl)-3,4-dihydroisoquinolin-2 (1H)-yl)-3-(3-(4-(2-(1-((S)-1-((2S,4R)-4-hydroxy-2-(((S)-1-(4-(4-methylthiazol-5-yl)phenyl)ethyl)carbamoyl)pyrrolidin-1-yl)-3,3-dimethyl-1-oxobutan-2-yl)-1H-1,2,3-triazol-4-yl)ethyl)phenoxy)-2-methylphenyl)picolinic acid], the “Ymin (24 h)” value was “B (50% ≤ Ymin < 70%)”.
For `Cc1ncsc1-c1ccc([C@H](C)NC(=O)[C@@H]2C[C@@H](O)CN2C(=O)[C@@H](NC(=O)CCCc2ccc(Oc3cccc(-c4ccc(N5CCc6cccc(C(=O)Nc7nc8ccccc8s7)c6C5)nc4C(=O)O)c3C)cc2)C(C)(C)C)nc1` [Compound 121a, 6-[8-(1,3-benzothiazol-2-ylcarbamoyl)-3,4-dihydro-1H-isoquinolin-2-yl]-3-[3-[4-[4-[[(1S)-1-[(2S,4R)-4-hydroxy-2-[[(1S)-1-[5-(4-methylthiazol-5-yl)-2-pyridyl]ethyl]carbamoyl]pyrrolidine-1-carbonyl]-2,2-dimethyl-propyl]amino]-4-oxo-butyl]phenoxy]-2-methyl-phenyl]pyridine-2-carboxylic acid], the “Ymin (24 h)” value was “A (Ymin < 50%)”.
For `Cc1ncsc1-c1ccc([C@H](C)NC(=O)[C@@H]2C[C@@H](O)CN2C(=O)[C@@H](NC(=O)CCc2ccc(Oc3cccc(-c4ccc(N5CCc6cccc(C(=O)Nc7nc8ccccc8s7)c6C5)nc4C(=O)O)c3C)cc2)C(C)(C)C)cc1` [Compound 112a, 6-[8-(1,3-benzothiazol-2-ylcarbamoyl)-3,4-dihydro-1H-isoquinolin-2-yl]-3-[3-[4-[3-[[(1S)-1-[(2S, 4R)-4-hydroxy-2-[[(1S)-1-[4-(4-methylthiazol-5-yl)phenyl]ethyl]carbamoyl]pyrrolidine-1-carbonyl]-2,2-dimethyl-propyl]amino]-3-oxo-propyl]phenoxy]-2-methyl-phenyl]pyridine-2-carboxylic acid], the “Ymin (24 h)” value was “B (50% ≤ Ymin < 70%)”.
With `Cc1ncsc1-c1ccc([C@H](C)NC(=O)[C@@H]2C[C@@H](O)CN2C(=O)[C@@H](NC(=O)C[C@H](Cc2ccc(Oc3cccc(-c4ccc(N5CCc6cccc(C(=O)Nc7nc8ccccc8s7)c6C5)nc4C(=O)O)c3C)cc2)C(F)(F)F)C(C)(C)C)cc1` (single isomer, unassigned) [Compound 131a] the “Ymin (24 h)” value was “A (Ymin < 50%)”.
For `Cc1ncsc1-c1ccc([C@H](C)NC(=O)[C@@H]2C[C@@H](O)CN2C(=O)[C@@H](NC(=O)C[C@H]2CC[C@@H](Oc3cccc(-c4ccc(N5CCc6cccc(C(=O)Nc7nc8ccccc8s7)c6C5)nc4C(=O)O)c3C)CC2)C(C)(C)C)cc1` [Compound 116b, 6-(8-(benzo[d]thiazol-2-ylcarbamoyl)-3,4-dihydroisoquinolin-2 (1H)-yl)-3-(3-(((1R,4s)-4-(2-(((S)-1-((2S,4R)-4-hydroxy-2-(((S)-1-(4-(4-methylthiazol-5-yl)phenyl)ethyl)carbamoyl)pyrrolidin-1-yl)-3,3-dimethyl-1-oxobutan-2-yl)amino)-2-oxoethyl)cyclohexyl)oxy)-2-methylphenyl)picolinic acid], the “Ymin (24 h)” value was “B (50% ≤ Ymin < 70%)”.
With `Cc1ncsc1-c1ccc([C@H](C)NC(=O)[C@@H]2C[C@@H](O)CN2C(=O)[C@@H](NC(=O)C[C@@H](C)Cc2ccc(Oc3cccc(-c4ccc(N5CCc6cccc(C(=O)Nc7nc8ccccc8s7)c6C5)nc4C(=O)O)c3C)cc2)C(C)(C)C)cc1` (relative stereo) [Compound 134a, 6-[8-(1,3-benzothiazol-2-ylcarbamoyl)-3,4-dihydro-1H-isoquinolin-2-yl]-3-[3-[4-[(2S)-4-[[(1S)-1-[(2S,4R)-4-hydroxy-2-[[(1S)-1-[4-(4-methylthiazol-5-yl)phenyl]ethyl]carbamoyl]pyrrolidine-1-carbonyl]-2,2-dimethyl-propyl]amino]-2-methyl-4-oxo-butyl]phenoxy]-2-methyl-phenyl]pyridine-2-carboxylic acid] the “Ymin (24 h)” value was “A (Ymin < 50%)”.
With `CC(=O)O[C@@H]1C[C@@H](C(=O)N[C@@H](C)c2ccc(-c3scnc3C)cc2)N(C(=O)[C@@H](NC(=O)C[C@H]2CC[C@H](Oc3cccc(-c4ccc(N5CCc6cccc(C(=O)Nc7nc8ccccc8s7)c6C5)nc4C(=O)O)c3C)CC2)C(C)(C)C)C1` [Compound 119a, 3-(3-(((1S,4r)-4-(2-(((S)-1-((2S,4R)-4-acetoxy-2-(((S)-1-(4-(4-methylthiazol-5-yl)phenyl)ethyl)carbamoyl)pyrrolidin-1-yl)-3,3-dimethyl-1-oxobutan-2-yl)amino)-2-oxoethyl)cyclohexyl)oxy)-2-methylphenyl)-6-(8-(benzo[d]thiazol-2-ylcarbamoyl)-3,4-dihydroisoquinolin-2 (1H)-yl)picolinic acid] the “Ymin (24 h)” value was “B (50% ≤ Ymin < 70%)”.
`CC(=O)O[C@@H]1C[C@@H](C(=O)N[C@@H](C)c2ccc(-c3scnc3C)cc2)N(C(=O)[C@@H](NC(=O)CCCc2ccc(Oc3cccc(-c4ccc(N5CCc6cccc(C(=O)Nc7nc8ccccc8s7)c6C5)nc4C(=O)O)c3C)cc2)C(C)(C)C)C1` [Compound 118a, 3-[3-[4-[4-[[(1S)-1-[(2S,4R)-4-acetoxy-2-[[(1S)-1-[4-(4-methylthiazol-5-yl)phenyl]ethyl]carbamoyl]pyrrolidine-1-carbonyl]-2,2-dimethyl-propyl]amino]-4-oxo-butyl]phenoxy]-2-methyl-phenyl]-6-[8-(1,3-benzothiazol-2-ylcarbamoyl)-3,4-dihydro-1H-isoquinolin-2-yl]pyridine-2-carboxylic acid] was tested, and the “Ymin (24 h)” value was “B (50% ≤ Ymin < 70%)”.
`Cc1ncsc1-c1ccc([C@H](C)NC(=O)[C@@H]2C[C@@H](O)CN2C(=O)[C@@H](NC(=O)C(C)(C)[C@H]2CC[C@H](Oc3cccc(-c4ccc(N5CCc6cccc(C(=O)Nc7nc8ccccc8s7)c6C5)nc4C(=O)O)c3C)CC2)C(C)(C)C)cc1` (single isomer, unassigned) [Compound 138b] was tested, and the “Ymin (24 h)” value was “C (Ymin ≥ 70%)”.
For `Cc1ncsc1-c1ccc([C@H](C)NC(=O)[C@@H]2C[C@@H](O)CN2C(=O)[C@@H](n2cc(CCCCCOc3cccc(-c4ccc(N5CCc6cccc(C(=O)Nc7nc8ccccc8s7)c6C5)nc4C(=O)O)c3C)nn2)C(C)(C)C)cc1` [Compound 126a, 6-[8-(1,3-benzothiazol-2-ylcarbamoyl)-3,4-dihydro-1H-isoquinolin-2-yl]-3-[3-[5-[1-[(1S)-1-[(2S,4R)-4-hydroxy-2-[[(1S)-1-[4-(4-methylthiazol-5-yl)phenyl]ethyl]carbamoyl]pyrrolidine-1-carbonyl]-2,2-dimethyl-propyl]triazol-4-yl]pentoxy]-2-methyl-phenyl]pyridine-2-carboxylic acid], the “Ymin (24 h)” value was “A (Ymin < 50%)”.
`Cc1ncsc1-c1ccc(CNC(=O)[C@@H]2C[C@@H](O)CN2C(=O)[C@@H](NC(=O)C2(F)CC2)C(C)(C)SCCCCCCCCOc2cccc(-c3ccc(N4CCc5cccc(C(=O)Nc6nc7ccccc7s6)c5C4)nc3C(=O)O)c2C)cc1` [Compound 136a, 6-(8-(benzo[d]thiazol-2-ylcarbamoyl)-3,4-dihydroisoquinolin-2 (1H)-yl)-3-(3-((8-(((R)-3-(1-fluorocyclopropane-1-carboxamido)-4-((2S,4R)-4-hydroxy-2-((4-(4-methylthiazol-5-yl)benzyl)carbamoyl)pyrrolidin-1-yl)-2-methyl-4-oxobutan-2-yl)thio)octyl)oxy)-2-methylphenyl)picolinic acid] was tested, and the “Ymin (24 h)” value was “A (Ymin < 50%)”.

From patent publication US20250288683A1, “TETRAHYDROISOQUINOLINE HETEROBIFUNCTIONAL BCL-XL DEGRADERS” (Treeline Biosciences, Inc., priority 2022, published 2025)
